According to ChEMBL document CHEMBL4190331, “Discovery of Potent EV71 Capsid Inhibitors for Treatment of HFMD” (ACS Med Chem Lett, 2017):
Active and inactive are the calls of the source. The rule behind the calls is not given here.

How the values were obtained:
[1] = Volume of distribution in CD-1 mouse at 2 mg/kg, iv administered as single dose; type: ADME, organism-based; conditions: in vivo
[2] = Cmax in CD-1 mouse at 5 mg/kg, ip administered as single dose; type: ADME, organism-based; parameters: dose 5 mg/kg, route intraperitoneal; conditions: in vivo
[3] = AUC in CD-1 mouse at 2 mg/kg, iv administered as single dose; type: ADME, organism-based; conditions: in vivo
[4] = Tmax in CD-1 mouse at 5 mg/kg, ip administered as single dose; type: ADME, organism-based; conditions: in vivo
[5] = Cytotoxicity against human RD cells assessed as reduction in cell viability after 72 hrs by CCK-8 assay
[6] = Clearance in CD-1 mouse at 2 mg/kg, iv administered as single dose; type: ADME, organism-based; conditions: in vivo
[7] = AUC in CD-1 mouse at 5 mg/kg, ip administered as single dose; type: ADME, organism-based; conditions: in vivo
[8] = […] bioavailability in CD-1 mouse at 5 mg/kg, ip administered as single dose; type: ADME, organism-based; conditions: in vivo, intraperitoneal
[9] = Elimination half life in CD-1 mouse at 2 mg/kg, iv administered as single dose; type: ADME, organism-based; conditions: in vivo, read-out: beta t1/2 (converted)
Enterovirus A71 [10] = assay: Antiviral activity against EV71 695F infected in ICR mouse assessed as decrease in body weight loss at 0.4 mg/kg, ip qd administered for 7 days dosed prior to viral infection measured for 2 weeks; type: functional, organism-based
Enterovirus A71 [11] = assay: Antiviral activity against EV71 695F infected in ICR mouse assessed as protection against viral infection by measuring mouse survival at 0.4 mg/kg, ip qd administered for 7 days dosed prior to viral infection measured on day 14 relative to control; type: functional; conditions: Enterovirus A
Enterovirus A71 [12] = assay: Antiviral activity against EV71 695F infected in ICR mouse assessed as effect on clinical score at 0.4 mg/kg, ip qd administered for 7 days dosed prior to viral infection measured for 2 weeks; type: functional, organism-based
[13] = Stability in mouse liver microsomes; type: ADME, microsome
Enterovirus A71 [14] = assay: Antiviral activity against EV71 695F infected in ICR mouse assessed as effect on clinical score at 10 mg/kg, ip qd administered for 7 days dosed prior to viral infection measured for 2 weeks; type: functional, organism-based
Enterovirus A71 [15] = assay: Antiviral activity against EV71 695F infected in ICR mouse assessed as effect on clinical score at 10 mg/kg, ip qd administered for 7 days dosed after viral infection measured for 2 weeks; type: functional, organism-based
Enterovirus A71 [16] = assay: Antiviral activity against EV71 695F infected in ICR mouse assessed as protection against viral infection by measuring mouse survival at 10 mg/kg, ip qd administered for 7 days dosed after viral infection measured for 2 weeks relative to control; type: functional; conditions: Enterovirus A
Enterovirus A71 [17] = assay: Antiviral activity against EV71 695F infected in ICR mouse assessed as decrease in body weight loss at 10 mg/kg, ip qd administered for 7 days dosed after viral infection measured for 2 weeks; type: functional, organism-based
Enterovirus A71 [18] = assay: Antiviral activity against EV71 695F infected in ICR mouse assessed as decrease in body weight loss at 10 mg/kg, ip qd administered for 7 days dosed prior to viral infection measured for 2 weeks; type: functional, organism-based
Enterovirus A71 [19] = assay: Antiviral activity against EV71 695F infected in ICR mouse assessed as protection against viral infection by measuring mouse survival at 10 mg/kg, ip qd administered for 7 days dosed prior to viral infection measured for 2 weeks relative to control; type: functional; conditions: Enterovirus A
Mus musculus [20] = assay: Toxicity in ICR mouse infected with EV71 695F assessed as death at 50 mg/kg, ip qd administered for 7 days measured on day 6; type: organism-based; conditions: in vivo, 168 h
Mus musculus [21] = assay: Toxicity in ICR mouse infected with EV71 695F assessed as death at 100 mg/kg, ip qd administered for 7 days measured on day 5; type: organism-based; conditions: in vivo, 168 h
[22] = Cmax in CD-1 mouse at 5 mg/kg, po administered as single dose; type: ADME, organism-based; parameters: dose 5 mg/kg, route oral; conditions: in vivo
[23] = AUC in CD-1 mouse at 5 mg/kg, po administered as single dose; type: ADME, organism-based; conditions: in vivo
[24] = molecular target: Voltage-gated inwardly rectifying potassium channel KCNH2 (Homo sapiens, UniProt Q12809); assay: Inhibition of human ERG expressed in CHO-K1 cells by Qpatch assay
[25] = […] bioavailability in CD-1 mouse at 5 mg/kg administered as single dose; type: ADME, organism-based; conditions: in vivo, po
[26] = Tmax in CD-1 mouse at 5 mg/kg, po administered as single dose; type: ADME, organism-based; conditions: in vivo

Chain of Voltage-gated inwardly rectifying potassium channel KCNH2 (Q12809 whole entry): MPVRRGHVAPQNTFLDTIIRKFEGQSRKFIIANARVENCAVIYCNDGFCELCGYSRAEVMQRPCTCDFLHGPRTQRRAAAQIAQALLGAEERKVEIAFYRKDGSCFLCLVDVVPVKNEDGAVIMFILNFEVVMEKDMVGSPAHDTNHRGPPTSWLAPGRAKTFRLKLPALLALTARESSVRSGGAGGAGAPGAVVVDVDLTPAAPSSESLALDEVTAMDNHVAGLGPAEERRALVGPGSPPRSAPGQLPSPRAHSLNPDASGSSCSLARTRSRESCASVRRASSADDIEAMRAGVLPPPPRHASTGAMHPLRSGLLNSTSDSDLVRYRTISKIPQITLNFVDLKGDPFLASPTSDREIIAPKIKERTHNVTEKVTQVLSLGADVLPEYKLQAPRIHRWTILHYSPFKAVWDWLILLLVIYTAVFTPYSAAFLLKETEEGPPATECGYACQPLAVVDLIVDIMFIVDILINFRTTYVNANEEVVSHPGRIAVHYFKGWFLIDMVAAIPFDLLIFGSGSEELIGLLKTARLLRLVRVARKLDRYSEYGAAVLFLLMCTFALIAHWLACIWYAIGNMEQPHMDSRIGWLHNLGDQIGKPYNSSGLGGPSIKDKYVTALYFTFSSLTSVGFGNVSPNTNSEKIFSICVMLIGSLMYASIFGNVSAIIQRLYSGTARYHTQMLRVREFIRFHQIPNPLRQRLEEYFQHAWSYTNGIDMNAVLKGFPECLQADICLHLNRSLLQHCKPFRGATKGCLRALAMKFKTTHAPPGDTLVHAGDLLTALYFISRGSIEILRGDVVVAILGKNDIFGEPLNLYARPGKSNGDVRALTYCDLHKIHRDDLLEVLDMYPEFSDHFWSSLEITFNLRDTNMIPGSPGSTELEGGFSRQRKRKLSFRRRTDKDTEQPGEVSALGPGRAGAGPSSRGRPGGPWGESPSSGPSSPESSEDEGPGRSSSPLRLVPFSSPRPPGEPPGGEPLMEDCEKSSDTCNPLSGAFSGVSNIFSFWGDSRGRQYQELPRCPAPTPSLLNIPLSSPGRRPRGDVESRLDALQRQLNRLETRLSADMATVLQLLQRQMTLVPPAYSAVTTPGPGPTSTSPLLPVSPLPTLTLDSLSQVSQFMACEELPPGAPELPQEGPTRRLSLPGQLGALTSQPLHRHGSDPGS

Row | Structure (SMILES) | Vd [1] [L/kg] | Cmax [2] [µM] | AUC [3] [µM·h] | Tmax [4] [h] | clearance [6] [L/h/kg] | AUC [7] [µM·h] | bioavailability [8] [%] | half-life [9] [h] | CC50 at 72 h ([5]; RD cells) [µM] | also measured
1 | CCO/N=C/c1ccc(OCCCCCN2CCN(c3ccnc(N)c3)S2(=O)=O)cc1 | 3.2 | 1.44 | 0.592 | 0.5 | 2.16 | 2.45 | 79 | 1.6 | – | CC50 at 72 h ([5]; rd): > 100 µM
2 | CCO/N=C(\CC)c1ccc(OCCCCCN2CCN(c3ccnc(N)c3)S2(=O)=O)cc1 | – | – | – | – | – | – | – | – | > 100 | –
3 | CCO/N=C1\CCCc2cc(OCCCCCN3CCN(c4ccnc(N)c4)S3(=O)=O)ccc21 | – | – | – | – | – | – | – | – | > 100 | –
4 | O[C@H]1[C@H]2c3cc4c(cc3CN3CCC(=C[C@@H]1O)[C@H]23)OCO4 [LYCORINE] | – | – | – | – | – | – | – | – | – | Activity (Enterovirus A71 [10]): Active; survival at 0.4 mg/kg (Enterovirus A71 [11]): 30%; Activity (Enterovirus A71 [12]): Active
5 | O=C1N(CCCCCOc2ccc(-c3ccc(Cl)cc3)cc2)CCN1c1ccncc1 | 9 | 0.453 | 2.73 | 2 | 1.68 | 4.28 | 64 | 4 | > 100 | Stability [13]: 40 to 50 µL/min/mg
6 | CCO/N=C(\C)c1ccc(OCCCCCN2CCN(c3ccnc(N)c3)S2(=O)=O)cc1 | – | – | – | – | – | – | – | – | > 100 | –
7 | Nc1cc(N2CCN(CCCCCOc3ccc(-c4ccc(Cl)cc4)cc3)S2(=O)=O)ccn1 | – | – | – | – | – | – | – | – | > 100 | –
8 | CCO/N=C1\CCc2cc(OCCCCCN3CCN(c4ccnc(N)c4)S3(=O)=O)ccc21 | 2.8 | 2.15 | 0.821 | 0.7 | 2.04 | 3.87 | 88 | 1.5 | – | Activity (Enterovirus A71 [14]): Active; Activity (Enterovirus A71 [15]): Active; CC50 at 72 h ([5]; rd): 42 µM; survival at 10 mg/kg (Enterovirus A71 [16]): 100%; Activity (Enterovirus A71 [17]): Active; Activity (Enterovirus A71 [18]): Active; survival at 10 mg/kg (Enterovirus A71 [19]): 100%
9 | CCn1ccc2cc(OCCCCCN3CCN(c4ccnc(N)c4)S3(=O)=O)ccc21 | – | – | – | – | – | – | – | – | > 100 | –
10 | CCc1noc2cc(OCCCCCN3CCN(c4ccnc(N)c4)S3(=O)=O)ccc12 | – | – | – | – | – | – | – | – | > 100 | –
11 | NC(=O)c1ncn([C@@H]2O[C@H](CO)[C@@H](O)[C@H]2O)n1 [RIBAVIRIN] | – | – | – | – | – | – | – | – | – | Activity (Mus musculus [20]): Toxic; Activity (Mus musculus [21]): Toxic
12 | O=C1CN(c2ccncc2)CCN1CCCCCOc1ccc(-c2ccc(Cl)cc2)cc1 | 10 | 1.26 | 3.34 | 2 | 1.26 | 8.95 | 112 | 6 | – | CC50 at 72 h ([5]; rd): 3.2 µM; Stability [13]: 40 to 50 µL/min/mg
13 | O=S1(=O)N(CCCCCOc2ccc(-c3ccc(Cl)cc3)cc2)CCN1c1ccncc1 | 5 | 0.682 | 5.71 | 2 | 0.72 | 9.01 | 63 | 6 | > 100 | Cmax [22]: 0.617 µM; AUC [23]: 6.17 µM·h; IC50 [24]: > 30 µM; bioavailability [25]: 43%; Stability [13]: < 10 µL/min/mg; Tmax [26]: 2 h
14 | O=C1N(CCCCc2nc3cc(-c4ccc(Cl)cc4)ccc3o2)CCN1c1ccncc1 | – | – | – | – | – | – | – | – | > 100 | –
15 | O=C1N(CCCCc2cc3cc(-c4ccc(Cl)cc4)ccc3o2)CCN1c1ccncc1 | – | – | – | – | – | – | – | – | 4.3 | –
16 | O=C1N(CCCCC2CCc3cc(-c4ccc(Cl)cc4)ccc3O2)CCN1c1ccncc1 (configuration not stated) | 3 | 3.36 | 11 | 1 | 0.36 | 23.2 | 86 | 5 | – | CC50 at 72 h ([5]; rd): 3.4 µM; Stability [13]: 40 to 50 µL/min/mg
17 | CCO/N=C/c1ccc(OCCC(C)CCN2CCN(c3ccnc(N)c3)C2=O)cc1 (configuration not stated) | 2.4 | 1.56 | 0.371 | 0.3 | 6.3 | 1.71 | 92 | 0.3 | – | CC50 at 72 h ([5]; rd): 5 µM
18 | CCn1ncc2cc(OCCCCCN3CCN(c4ccnc(N)c4)S3(=O)=O)ccc21 | – | – | – | – | – | – | – | – | > 100 | –
